Square brackets hold non-standard residues; d marks the D form. Peptide text beside a SMILES is read from it. NMeF = CN[C@@H](Cc1ccccc1)C(=O)O

This note sets out measurements from patent US11167006B2 (Shanghai Tianci Life Science Development Co., Ltd., priority 2016, dated 2021).

The subject of data set [1] is formalin-induced pain mice. Kind of data set: Formalin pain test. In kind it is in vivo, mouse. As to the method:
The mice were placed in a transparent organic glass box (20×20×30 cm) to accommodate the environment for 10-15 min; a mirror tilted at 30 degrees was placed underneath to facilitate observation of the mouse's foot reaction. After adaptation, the mice were administered in lateral ventricle, intrathecally or intraperitoneally. 5 minutes after administration, 20 μL of a 5% formalin solution was subcutaneously injected into the toes of the right hind paw of the mice, and quickly placed back in the observation box. Timing was started, and the time when the mouse was licking, biting and shaking the injected paw during 0-5 minutes and 15-30 minutes after the injection of the formalin solution were recorded respectively.
The experimental data was expressed by MPE (maximum possible effect), MPE (%)=100×[(licking paw time in saline group−licking paw time in drug group)/licking paw time in saline group]. The relevant MPE data were expressed as mean±standard error Means±S.E.M.), the data for differences between groups treated with different drug concentrations were analyzed by one-way ANOVA (Bonferroni test in one-way ANOVA) for statistics and analysis, ***P<0.001 represents that there was a significant difference between the MPE value of the drug-treated group and that of the saline group.

The subject of data set [2] is CFA-induced inflammatory pain in mouse. In words: Analgesic tolerance and cross-tolerance in CFA-induced inflammatory pain. Format: in vivo. As to the method:
CFA-induced inflammatory pain in mouse was detected by an electronic Von Frey tenderness instrument, and the basal pain threshold of normal mice was Firstly determined. Then […] of CFA solution was injected subcutaneously into the mouse paw. After 4 days, the mechanical pain sensitivity value of the injected paw of the mouse was measured. And then compound 9 or morphine was injected for 6 consecutive days (lateral ventricle) or 7 consecutive days (subcutaneously), and the mice in morphine group were given compound 9 on day 7 (lateral ventricle) or day 8 (subcutaneous). The mechanical pain thresholds at different time points after administration were recorded.
The experimental data were expressed as mean± standard error (Means±S.E.M.). Data for differences between groups treated with the same drug were analyzed by one-way ANOVA (Tukey HSD test of one-way ANOVA) for statistics and analysis, *P<0.05. **P<0.005, ***P<0.001 indicates a significant difference between the mechanical pain threshold of the drug-treated group and the pain threshold after the first day of administration.

Data set [3] concerns acute pain caused by photothermal therapy in male mice of Kunming strain. In words: Mouse photothermal tail flick analgesia experiment. Format: in vivo. As to the method: After the drug was injected into the lateral ventricle, intrathecal, subcutaneous, and intraperitoneal, the modulating activity on pain was measured by the photothermal tail flick test in mouse.
In the lateral ventricle administration, the lateral ventricle tube-buried surgery of the mouse should be performed in advance to ensure the accuracy of the drug injection site. A brain stereotaxic instrument was used in the lateral ventricle tube-buried surgery of the mouse. Male mice of Kunming strain, weighing 21±2 g; brain stereotaxic instrument is Jiangwan I. After the mice were anesthetized with sodium pentobarbital (i.p., 80 mg/kg mouse body weight), the hair in the head surgery area of the mouse was cut off and the mouse was placed on the brain stereotactic instrument and fixed. The surgery area was disinfected with iodophor, the scalp was opened along the sagittal suture to reveal the skull and the position of the anterior fontanelle can be found. 3 mm backward and 1 mm left/right from the anterior fontanelle, the upper position of the lateral ventricle can be found. A self-made stainless steel tube (a section of 24-gauge, which is connected to a small section of PE-10 tube) is inserted 3 mm downward according to the above position, which is the lateral ventricle. A section of stainless steel string (28-gauge) is inserted into the above-mentioned steel tube to prevent cerebrospinal fluid spillage and foreign matter infection and block the steel pipe. The steel tube is fixed with medical dental powder and glue, and after solidification, the wound is sutured. After the surgery, the mice were recovered tier 4 days, and the follow-up experiment was started on the 5th day. Surgical instruments, stainless steel tubes, etc. involved in the experiment need to be disinfected before the surgery. The mouse lateral ventricle was injected with 4 μl of the drug each time, and then the steel tube was rinsed with 1 μl of physiological saline.
Spinal cord level administration is performed by intrathecal injection in conscious mice, and the specific procedure is described in the method reported by Hylden and Wilcox (Eur. J. Pharmacol. 1980, 67: 313). A 25 μL microinjector was inserted directly into the subarachnoid space between L5 and L6.
The intraperitoneal administration was directly injected using a 1 mL syringe at an injection volume of 10 μl/g body weight. At the time of injection, the mouse was held by left hand with their abdomen facing up and the head was at low position while the tail was at high position. The side of the midline of the abdomen was taken, the needle hole of the syringe was upward, the needle tip penetrates into the skin in a direction less than 20 degrees, the needle tip was slightly pushed in the direction of the mouse head and sticking abdominal wall, and then punctures into the abdominal cavity in the direction of 45 degrees, and was withdrawn to confirm that it has not been pierced into the blood vessel or the intestine, afterwards the drug solution is slowly pushed out.
Subcutaneous injection was also administered directly using a 1 mL syringe in an injection volume of 10 μl/g body weight. At the time of injection, the neck and tail of the mouse were fixed in the left hand, and the head and body were inclined downward at 45 degrees. The needle hole of the syringe is upward, the needle tip is slowly pierced into the skin on the right side of the back center line at an angle of less than 20 degrees, and the needle tip is lightly picked up to confirm that there is no piercing, afterwards the drug solution is slowly pushed out.
Male mice of Kunming strain were used to detect the effects of drugs on pain perception using a photothermal tail flick instrument. The ambient temperature is controlled at 22±1° C., and the experimental animals are free to eat and drink. The basic tail flick incubation period (3-5 seconds) was determined prior to administration, and mice that were too sensitive or dull were discarded. […]

[4] abbreviates: lateral ventricle (i.c.v.), listed as compound 9.
Where [5] appears, read: lateral ventricle, from ED50 values.

Take `C[C@@H](NC(=O)[C@@H](N)Cc1ccc(O)cc1)C(=O)NCC(=O)N(C)[C@@H](Cc1ccccc1)C(=O)NCC(=O)N1CCC[C@H]1C(=O)N[C@@H](CCC(N)=O)C(=O)N[C@@H](CCCNC(=N)N)C(=O)N[C@@H](Cc1ccccc1)C(N)=O` [Compound 9, Tyr-D-Ala-Gly-NMe-Phe-Gly-Pro-Gln-Arg-Phe-NH2] (H-Y[dA]G[NMeF]GPQRF-NH2): the “ED50 value (95% confidence interval) first phase pain” value in data set [1] (intraperitoneal (i.p.)) was 8.855 (7.573 to 10.35) mg/kg; in data set [1] (intrathecal (i.t.)), 37.69 (35.53 to 39.99) pmol; in data set [1] (lateral ventricle (i.c.v.)), 18.8 pmol; in data set [1] (setting [4]) it was 18.80 (15.97 to 22.12) pmol. Besides, the “ED50 value (95% confidence interval) second phase pain” value in data set [1] (intraperitoneal (i.p.)) was 10.92 (9.632 to 12.39) mg/kg; in data set [1] (intrathecal (i.t.)), 55.04 (51.26 to 59.10) pmol; in data set [1] (lateral ventricle (i.c.v.)) it was 103.4 pmol; in data set [1] (setting [4]), 103.4 (96.02 to 111.3) pmol. Further, the “analgesic effect relative to BN-9, first phase pain” value in data set [1] (setting [5]) is listed as 6.3 times. Moreover, the “analgesic effect relative to BN-9, second phase pain” value in data set [1] (setting [5]) was determined as 11.0 times. The “analgesic tolerance on continuous injection” value in data set [2] (mechanical pain, lateral ventricle 6 days or subcutaneous 7 days) is “not significantly different from that of the first day”. For the same compound, in data set [2] (morphine-tolerant mice given compound 9 on day 7 (lateral ventricle) or day 8 (subcutaneous)), the “cross-tolerance between compound 9 and morphine” value is given as “no cross-tolerance”. Also, the “analgesia ED50 value” amounted to 26.58 mg/kg in data set [3] (abdominal (intraperitoneal)) and 0.2279 mg/kg in data set [3] (subcutaneous). Also, the “analgesic potency relative to BN-9” value in data set [3] (intrathecal) came to 218 times; in data set [3] (setting [5]) it was 23.9 times. In addition, the “analgesic ED50 value” in data set [3] (intrathecal administration) is 1.33 pmol; in data set [3] (lateral ventricle administration), 16.3 pmol. In addition, the “maximum analgesic MPE value” in data set [3] (intrathecal, 5 pmol) was determined as 94.7%. The “ED50 value (nmol) (95% confidence interval), analgesic activity” value in data set [3] (lateral ventricle injection) is on record as 0.0163 (0.0145 to 0.0182) nmol.
